From patent publication US20040242501A1, “Spermicidal and virucidal properties of various forms of sophorolipids” (priority 2003, published 2004)

Tests used:
MT-2 cells = assay: Agent-induced cytotoxicity in cell-free inactivation assay; type: cell-based; design: TCTD50 Cytotoxicity: unit not given here; conditions: for TCTD50 Cytotoxicity: MT-2 cells, day 7
Description: (§1) Pre-titered concentrated virus (HIV-1 RF) stock (10 μL) was mixed with 90 μL of the test agent formulation in microtubes. At the end of the two-minute exposure period, serial 10-fold dilutions were carried out with a multichannel pipettor so that the sample dilutions were performed simultaneously. Aliquots (100 μL) of the serial dilutions were then transferred simultaneously to another 96-well plate which had been pre-seeded with MT-2 cells in RPMI medium supplemented with FBS. Four wells were used for each dilution of virus. The cultures were incubated at 37° C. in a humidified atmosphere of 5% CO2. The cultures were scored microscopically for virus-induced cytopathic effect and agent-induced cytotoxicity on day 4 and 7 of incubation, and day 7 reported. Cultures were routinely maintained 2 to 3 days after initial analysis, and observed visually and microscopically for abnormalities.

HIV-1 RF = assay: Cell-free HIV inactivation assay; type: cell-based, human immunodeficiency virus (HIV); conditions: for virucidal / antiviral activity, in words: HIV as model organism, positive = minimum reduction in virus titer of 2 logs; for Log Reduction in Virus Titer: two-minute exposure, day 7, virus control 6.0 log10 TCID50/0.1 mL
Description: as §1

[1] = tested on: human spermatozoa (swim-up sperm); assay: Sperm motility time response (real-time and post-dilution/post-wash); type: cell-based; conditions: 0.3 mg/mL, mean ± SD, n=5; for Real-Time Motility (%): initial solvent DMSO; for Post-Dilution Motility (%): then washed, 30 min post-washing
Description: (§2) Motility and viability time-responses were studied with a sophorolipid testing concentration of 0.3 mg/mL. At this concentration no effect of the solvent was observed. All sperm used for this experiment and throughout the study were obtained from human semen samples through a one hour swim-up separation technique in BWW medium+0.1% HSA. 100 uL of swim-up sperm were incubated with 1 uL of compound for the time points of 2 min, 30 min, 2 hrs, and 4 hrs and assessed for progressive motility (“real-time” assessment). n=5 for all time points. Co-incubation samples were diluted with 1 mL of BWW medium+0.1% HSA. The tubes were centrifuged, the supernatant removed, and the sperm resuspended in the original volume of 100 uL BWW+0.1% HSA and incubated at 37° C., 5% CO2. At 30 min post-washing, motility was again assessed. After the 30 min post-wash assessment, 900 uL of HOS medium was added to the sample and tubes were incubated for 30 min at 37° C. Post-incubation, samples were assessed for viability. Motility and viability were quantified “manually” under dark field microscopy (Nikon E-800).

[2] = tested on: human spermatozoa (swim-up sperm); assay: Sperm viability after washing (HOS medium); type: cell-based; conditions: 0.3 mg/mL, post-wash, mean ± SD, n=5
Description: as §2

[3] = Percent of agent during exposure 0.03
[4] = Percent of agent during exposure 0.09
[5] = Percent of agent during exposure 0.3

CCOC(=O)CCCCCCC/C=C\CCCCCCC(C)O[C@@H]1O[C@H](CO)[C@@H](O)[C@H](O)[C@H]1O[C@@H]1O[C@H](CO)[C@@H](O)[C@H](O)[C@H]1O (stereo partly shown)
cytotoxicity, in words (MT-2 cells): reduced cytotoxicity | virucidal / antiviral activity, in words (HIV-1 RF): high activity | selectivity index (virucidal activity vs cytotoxicity), in words (HIV-1 RF; comparison among the four sophorolipids of Table 2): best selectivity index

CCOC(=O)CCCCCCC/C=C\CCCCCCC(C)O[C@@H]1O[C@H](CO)[C@@H](O)[C@H](O)[C@H]1O[C@@H]1O[C@H](CO)[C@@H](O)[C@H](O)[C@H]1O (relative stereo) [SLET, Ethyl 17-L-[(2′-O-β-D-glucopyranosyl-β-D-glucopyranosyl)-oxy]-cis-9-octadecenoate]
TCTD50 Cytotoxicity (MT-2 cells; [3]): ≦0.5 | TCTD50 Cytotoxicity (MT-2 cells; [4]): ≦0.5 | TCTD50 Cytotoxicity (MT-2 cells; [5]): 1.5 | virucidal / antiviral activity, in words (HIV-1 RF; listed as ethyl ester form of sophorolipid): highly effective | Log Reduction in Virus Titer (HIV-1 RF; [3]): 2.0 Log | Log Reduction in Virus Titer (HIV-1 RF; [4]): 3.3 Log | Log Reduction in Virus Titer (HIV-1 RF; [5]): 4.3 Log | Real-Time Motility (%) ([1]; 2 min incubation): 0.73 ± 0.81% | Post-Dilution Motility (%) ([1]; 2 min incubation): 3.37 ± 3.87% | Real-Time Motility (%) ([1]; 30 min incubation): 0.00 ± 0.00% | Post-Dilution Motility (%) ([1]; 30 min incubation): 0.00 ± 0.00% | Real-Time Motility (%) ([1]; 2 hour incubation): 0.00 ± 0.00% | Post-Dilution Motility (%) ([1]; 2 hour incubation): 0.00 ± 0.00% | Post-Dilution Viability (%) ([2]; 2 min incubation): 2.36 ± 5.29% | Post-Dilution Viability (%) ([2]; 30 min incubation): 1.00 ± 2.24% | Post-Dilution Viability (%) ([2]; 2 hour incubation): 0.00 ± 0.00%

CCOC(=O)CCCCCCC/C=C\CCCCCCC(C)O[C@@H]1O[C@H](COC(C)=O)[C@@H](O)[C@H](O)[C@H]1O[C@@H]1O[C@H](COC(C)=O)[C@@H](O)[C@H](O)[C@H]1O (relative stereo) [SLETDA, Ethyl 17-L[(2′-O-β-D glucopyranosyl-β-D-glucopyranosyl)-oxy]-cis-9-octadecenoate 6′,6″-diacetate]
TCTD50 Cytotoxicity (MT-2 cells; [3]): ≦0.5 | TCTD50 Cytotoxicity (MT-2 cells; [4]): 1.5 | TCTD50 Cytotoxicity (MT-2 cells; [5]): 1.5 | Log Reduction in Virus Titer (HIV-1 RF; [3]): 1.7 Log | Log Reduction in Virus Titer (HIV-1 RF; [4]): ≧4.5 Log | Log Reduction in Virus Titer (HIV-1 RF; [5]): ≧4.5 Log | Real-Time Motility (%) ([1]; 2 min incubation): 0.00 ± 0.00% | Post-Dilution Motility (%) ([1]; 2 min incubation): 0.00 ± 0.00% | Real-Time Motility (%) ([1]; 30 min incubation): 0.00 ± 0.00% | Post-Dilution Motility (%) ([1]; 30 min incubation): 0.00 ± 0.00% | Real-Time Motility (%) ([1]; 2 hour incubation): 0.00 ± 0.00% | Post-Dilution Motility (%) ([1]; 2 hour incubation): 0.00 ± 0.00% | Post-Dilution Viability (%) ([2]; 2 min incubation): 0.40 ± 0.90% | Post-Dilution Viability (%) ([2]; 30 min incubation): 0.20 ± 0.45% | Post-Dilution Viability (%) ([2]; 2 hour incubation): 0.00 ± 0.00%

CCCCCCOC(=O)CCCCCCC/C=C\CCCCCCC(C)O[C@@H]1O[C@H](CO)[C@@H](O)[C@H](O)[C@H]1O[C@@H]1O[C@H](CO)[C@@H](O)[C@H](O)[C@H]1O (relative stereo) [SLHEX, Hexyl 17-L-[(2′-O-β-D-glucopyranosyl-β-D-glucopyranosyl)-oxy]-cis-9-octadecenoate]
TCTD50 Cytotoxicity (MT-2 cells; [3]): ≦0.5 | TCTD50 Cytotoxicity (MT-2 cells; [4]): ≦0.5 | TCTD50 Cytotoxicity (MT-2 cells; [5]): 1.5 | Log Reduction in Virus Titer (HIV-1 RF; [3]): 0 Log | Log Reduction in Virus Titer (HIV-1 RF; [4]): 3.0 Log | Log Reduction in Virus Titer (HIV-1 RF; [5]): 4.0 Log | Real-Time Motility (%) ([1]; 2 min incubation): 1.26 ± 1.22% | Post-Dilution Motility (%) ([1]; 2 min incubation): 1.55 ± 2.18% | Real-Time Motility (%) ([1]; 30 min incubation): 0.00 ± 0.00% | Post-Dilution Motility (%) ([1]; 30 min incubation): 0.00 ± 0.00% | Real-Time Motility (%) ([1]; 2 hour incubation): 0.00 ± 0.00% | Post-Dilution Motility (%) ([1]; 2 hour incubation): 0.00 ± 0.00% | Post-Dilution Viability (%) ([2]; 2 min incubation): 2.27 ± 3.22% | Post-Dilution Viability (%) ([2]; 30 min incubation): 1.10 ± 2.46% | Post-Dilution Viability (%) ([2]; 2 hour incubation): 0.00 ± 0.00%
